The results in this text go back to ChEMBL document CHEMBL1157390, “Aplysinoplides A-C, cytotoxic sesterterpenes from the marine sponge Aplysinopsis digitata” (J Nat Prod, 2008).

In brackets after ≈: the same amount, converted by molar mass. Activity calls are given as the source filed them. The rule behind the calls is not given here.

Experiment [1] deals with Phospholipase A2 (Bos taurus) (UniProt P00593). As to the kind of experiment: Inhibition of bovine pancreas PLA2 at 100 uM by pH-stat assay.
Experiment [2] relates to P388. In words: Cytotoxicity against mouse P388 cells after 96 hrs by MTT assay. The conditions noted are these: P388, 96 h. The experiment is classed as functional, cell-based.

Chain of Phospholipase A2 (Bos taurus) (P00593 whole entry): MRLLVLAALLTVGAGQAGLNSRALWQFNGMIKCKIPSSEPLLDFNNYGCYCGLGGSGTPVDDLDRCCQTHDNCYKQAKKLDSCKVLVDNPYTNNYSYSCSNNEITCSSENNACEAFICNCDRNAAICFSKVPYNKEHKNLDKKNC

Turning to `CC1=C(CC/C(C)=C/CCC2=CC[C@H](C3=CC(=O)O[C@H]3O)O[C@H]2O)C(C)(C)CCC1`, in experiment [1], the result was Active.

As for `CC1=C(CC/C(C)=C/CC/C(=C\C=C\C2=CC(=O)OC2O)CO)C(C)(C)CCC1` (stereo unspecified) [APLYSINOPLIDE A], the result in experiment [1] was inactive. In experiment [2], this molecule had an IC50 of 0.45 µg/mL (≈ 1.12 µM).

`CC1=C(CC/C(C)=C/CC/C(=C\CC(O)C2=CC(=O)OC2O)CO)C(C)(C)CCC1` (stereo unspecified) [APLYSINOPLIDE B]: the outcome in experiment [1] was inactive. In experiment [2], this molecule gave an IC50 of 0.45 µg/mL (≈ 1.08 µM).

Consider `C/C(=C\CC/C(=C/CC1OC(=O)C=C1CO)CO)CCC1C(C)(C)CCCC1(C)O` (stereo unspecified) [APLYSINOPLIDE C], for which, in experiment [2], the IC50 is 11 µg/mL (≈ 26.2 µM).
